PubChem BioAssay (NCI)
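Assay format: 96-well plates, 48-hour exposure. GI50 is the concentration that inhibits growth by half. TGI is the concentration that stops growth completely.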

What was measured:
Assay in all cases: NCI anticancer screen, dose series, 48 h
SK-MEL-28 melanoma = system: SK-MEL-28 melanoma
COLO 205 colon = system: COLO 205 colon
T-47D breast = system: T-47D breast
OVCAR-4 ovarian = system: OVCAR-4 ovarian
SN12C renal = system: SN12C renal
EKVX NSCLC = system: EKVX NSCLC
UACC-62 melanoma = system: UACC-62 melanoma
U251 CNS = system: U251 CNS
SNB-75 CNS = system: SNB-75 CNS
PC-3 prostate = system: PC-3 prostate
MDA-MB-231 breast = system: MDA-MB-231 breast
LOX IMVI melanoma = system: LOX IMVI melanoma
786-0 renal = system: 786-0 renal
RPMI-8226 leukemia = system: RPMI-8226 leukemia
UO-31 renal = system: UO-31 renal
MALME-3M melanoma = system: MALME-3M melanoma
NCI/ADR-RES ovarian = system: NCI/ADR-RES ovarian
K-562 leukemia = system: K-562 leukemia
BT-549 breast = system: BT-549 breast
SK-MEL-2 melanoma = system: SK-MEL-2 melanoma
HCT-116 colon = system: HCT-116 colon
OVCAR-8 ovarian = system: OVCAR-8 ovarian
NCI-H226 lung = system: NCI-H226 lung
NCI-H522 lung = system: NCI-H522 lung
HS 578T breast = system: HS 578T breast
HCC-2998 colon = system: HCC-2998 colon
SK-MEL-5 melanoma = system: SK-MEL-5 melanoma
MDA-MB-435 = system: MDA-MB-435
RXF 393 renal = system: RXF 393 renal
SNB-19 CNS = system: SNB-19 CNS
CCRF-CEM leukemia = system: CCRF-CEM leukemia
HOP-62 NSCLC = system: HOP-62 NSCLC
ACHN renal = system: ACHN renal
NCI-H460 lung = system: NCI-H460 lung
HCT-15 colon = system: HCT-15 colon
OVCAR-5 ovarian = system: OVCAR-5 ovarian
SR leukemia = system: SR leukemia
MCF7 breast = system: MCF7 breast
SW-620 colon = system: SW-620 colon
IGROV1 ovarian = system: IGROV1 ovarian
A498 renal = system: A498 renal
SF-295 CNS = system: SF-295 CNS
KM12 colon = system: KM12 colon
TK-10 renal = system: TK-10 renal
A549 NSCLC = system: A549 NSCLC
CAKI-1 renal = system: CAKI-1 renal
OVCAR-3 ovarian = system: OVCAR-3 ovarian
HT29 colon = system: HT29 colon
DU-145 prostate = system: DU-145 prostate
SF-539 CNS = system: SF-539 CNS
HOP-92 NSCLC = system: HOP-92 NSCLC
UACC-257 melanoma = system: UACC-257 melanoma
HL-60(TB) leukemia = system: HL-60(TB) leukemia
SF-268 CNS = system: SF-268 CNS
MOLT-4 leukemia = system: MOLT-4 leukemia
SK-OV-3 ovarian = system: SK-OV-3 ovarian
M14 melanoma = system: M14 melanoma
NCI-H23 lung = system: NCI-H23 lung

In the case of `CCNC1=CC(=O)c2ncccc2C1=O`, the GI50 (SK-MEL-28 melanoma) is reported as 1.71 µM, the TGI (SK-MEL-28 melanoma) is reported as 3.52 µM and the GI50 (COLO 205 colon) is reported as 1.63 µM. The TGI (COLO 205 colon) was 3.3 µM, the GI50 (T-47D breast) was 4.45 µM and the TGI (T-47D breast) was 23.1 µM. For the same compound, the GI50 (OVCAR-4 ovarian) was 1.64 µM, the TGI (OVCAR-4 ovarian) was 8.12 µM and the GI50 (SN12C renal) was 1.4 µM. It also gave a TGI (SN12C renal) of 2.78 µM, a GI50 (EKVX NSCLC) of 4.68 µM and a TGI (EKVX NSCLC) of 18.5 µM. For the same compound, the GI50 (UACC-62 melanoma) was 1.06 µM, the TGI (UACC-62 melanoma) was 2.3 µM and the GI50 (U251 CNS) was 2.49 µM. The TGI (U251 CNS) was 13.6 µM, the GI50 (SNB-75 CNS) was 1.19 µM and the TGI (SNB-75 CNS) was 2.45 µM. The GI50 (PC-3 prostate) was 2.71 µM, the TGI (PC-3 prostate) was 22.8 µM and the GI50 (MDA-MB-231 breast) was 2.66 µM. The TGI (MDA-MB-231 breast) was 21.1 µM, the GI50 (LOX IMVI melanoma) was 1 µM and the TGI (LOX IMVI melanoma) was 3.22 µM. It also gave a GI50 (786-0 renal) of 9.09 µM, a TGI (786-0 renal) of 23.4 µM and a GI50 (RPMI-8226 leukemia) of 7.08 µM. For the same compound, the TGI (RPMI-8226 leukemia) was 29.6 µM, the GI50 (UO-31 renal) was 1.76 µM and the TGI (UO-31 renal) was 7.72 µM. It also gave a GI50 (MALME-3M melanoma) of 1.03 µM, a TGI (MALME-3M melanoma) of 2.23 µM and a GI50 (NCI/ADR-RES ovarian) of 3.75 µM. For the same compound, the TGI (NCI/ADR-RES ovarian) was 28.2 µM, the GI50 (K-562 leukemia) was 2.84 µM and the TGI (K-562 leukemia) was 12.5 µM. It also gave a GI50 (BT-549 breast) of 1.54 µM, a TGI (BT-549 breast) of 3.15 µM and a GI50 (SK-MEL-2 melanoma) of 2.36 µM. The TGI (SK-MEL-2 melanoma) was 7.53 µM, the GI50 (HCT-116 colon) was 3 µM and the TGI (HCT-116 colon) was 9.7 µM. The GI50 (OVCAR-8 ovarian) was 3.04 µM, the TGI (OVCAR-8 ovarian) was 14.2 µM and the GI50 (NCI-H226 lung) was 1.85 µM. It also gave a TGI (NCI-H226 lung) of 4.42 µM, a GI50 (NCI-H522 lung) of 1.79 µM and a TGI (NCI-H522 lung) of 4.23 µM. It also gave a GI50 (HS 578T breast) of 1.69 µM, a TGI (HS 578T breast) of 6.27 µM and a GI50 (HCC-2998 colon) of 2.16 µM. It also gave a TGI (HCC-2998 colon) of 5.37 µM, a GI50 (SK-MEL-5 melanoma) of 0.298 µM and a TGI (SK-MEL-5 melanoma) of 1.11 µM. It also gave a GI50 (MDA-MB-435) of 0.4 µM, a TGI (MDA-MB-435) of 1.5 µM and a GI50 (RXF 393 renal) of 5.65 µM. For the same compound, the TGI (RXF 393 renal) was 17.9 µM, the GI50 (SNB-19 CNS) was 1.59 µM and the TGI (SNB-19 CNS) was 6.7 µM. It also gave a GI50 (CCRF-CEM leukemia) of 6.14 µM, a TGI (CCRF-CEM leukemia) of 42.4 µM and a GI50 (HOP-62 NSCLC) of 0.583 µM. It also gave a TGI (HOP-62 NSCLC) of 2.04 µM, a GI50 (ACHN renal) of 5.9 µM and a TGI (ACHN renal) of 19.6 µM. The GI50 (NCI-H460 lung) was 0.439 µM, the TGI (NCI-H460 lung) was 2 µM and the GI50 (HCT-15 colon) was 0.999 µM. For the same compound, the TGI (HCT-15 colon) was 3.22 µM, the GI50 (OVCAR-5 ovarian) was 1.79 µM and the TGI (OVCAR-5 ovarian) was 3.47 µM. It also gave a GI50 (SR leukemia) of 3.71 µM, a TGI (SR leukemia) of 11 µM and a GI50 (MCF7 breast) of 1.17 µM. For the same compound, the TGI (MCF7 breast) was 3.2 µM, the GI50 (SW-620 colon) was 1.75 µM and the TGI (SW-620 colon) was 4.3 µM. The GI50 (IGROV1 ovarian) was 7.91 µM, the TGI (IGROV1 ovarian) was 24.5 µM and the GI50 (A498 renal) was 1.24 µM. The TGI (A498 renal) was 2.87 µM, the GI50 (SF-295 CNS) was 1.23 µM and the TGI (SF-295 CNS) was 2.56 µM. The GI50 (KM12 colon) was 3.25 µM, the TGI (KM12 colon) was 15.1 µM and the GI50 (TK-10 renal) was 15.6 µM. For the same compound, the TGI (TK-10 renal) was 29.7 µM, the GI50 (A549 NSCLC) was 1.2 µM and the TGI (A549 NSCLC) was 3.38 µM. The GI50 (CAKI-1 renal) was 7.5 µM, the TGI (CAKI-1 renal) was 21.1 µM and the GI50 (OVCAR-3 ovarian) was 0.807 µM. It also gave a TGI (OVCAR-3 ovarian) of 5.41 µM, a GI50 (HT29 colon) of 2.82 µM and a TGI (HT29 colon) of 6.59 µM. For the same compound, the GI50 (DU-145 prostate) was 1.18 µM, the TGI (DU-145 prostate) was 2.44 µM and the GI50 (SF-539 CNS) was 1.89 µM. The TGI (SF-539 CNS) was 3.76 µM, the GI50 (HOP-92 NSCLC) was 10.3 µM and the TGI (HOP-92 NSCLC) was 25.3 µM. For the same compound, the GI50 (UACC-257 melanoma) was 1.42 µM, the TGI (UACC-257 melanoma) was 3 µM and the GI50 (HL-60(TB) leukemia) was 1.87 µM. The TGI (HL-60(TB) leukemia) was 7.13 µM, the GI50 (SF-268 CNS) was 3.13 µM and the TGI (SF-268 CNS) was 17.3 µM. The GI50 (MOLT-4 leukemia) was 2.94 µM, the TGI (MOLT-4 leukemia) was 14.3 µM and the GI50 (SK-OV-3 ovarian) was 6.92 µM. The TGI (SK-OV-3 ovarian) was 19.8 µM, the GI50 (M14 melanoma) was 1.11 µM and the TGI (M14 melanoma) was 2.46 µM. It also gave a GI50 (NCI-H23 lung) of 0.504 µM and a TGI (NCI-H23 lung) of 2.53 µM.
